US9676806B2, “Metal-based thiophene photodynamic compounds and their use” (priority 2012, dated 2017)

Test system: pUC19 plasmid DNA
Assay: PDC-mediated pUC19 photocleavage, gel electrophoretic analysis
[1] = Air, +hv, 420-nm irradiation 1 hr, FIG. 15
[2] = Air, +hv, visible irradiation 1 hr, 21 W/m^2, FIG. 16
[3] = Ar, +hv, 420-nm irradiation 1 hr, FIG. 15
[4] = Ar, +hv, visible irradiation 1 hr, 21 W/m^2, FIG. 16

Method: FIG. 16: Gel electrophoretic analysis (1% agarose gel precast with 0.75 μg mL^−1 ethidium bromide, 1×TAE, 8 V cm^−1, 30 min.) of PDC-mediated pUC19 photocleavage in air-saturated and deoxygenated solution: visible irradiation of pUC19 (20 μM NP in 10 mM Tris·100 mM NaCl, pH 7.4) for 1 hr. with cool white fluorescent tubes, 21 W/m^2. Lanes 1 (−PDC, −hv), 2 (500 μM [Ru(bpy)3]^2+, −hv), and 5 (2 μM 10a, −hv) are controls. Lanes 3 (500 μM [Ru(bpy)3]^2+, +hv) and 6 (2 μM 10a, +hv) contain samples that were irradiated in air; lanes 4 and 7 are the corresponding samples irradiated in argon.
DNA photocleavage experiments were performed according to a general plasmid DNA assay with 20 μL total sample volumes in 0.5 or 1.5 mL microfuge tubes containing transformed pUC19 plasmid (200 ng, >95% Form I) in 10 mM MOPS buffer and 100 mM NaCl, pH 7.4. DNA (1-5 μL) was delivered to the assay tubes as a solution in 10 mM Tris-Cl (pH 8.5) and diluted with MOPS (pH 7.5, final concentration 10 mM) and NaCl (final concentration 100 mM). […] Complexes were dissolved initially in acetonitrile (2 μM stock solutions), and all subsequent dilutions were made with ddH2O where final assay tubes contained <1% acetonitrile. For concentration-based assays, samples (no pre-incubation period) were irradiated in air for 30 min with 420 nm light inside a photoreactor (Luzchem LZC-4X). Where irradiation of deoxygenated samples was required, argon was bubbled through the solutions for 15 min prior to irradiation under a positive pressure of argon. All samples were quenched by the addition of gel loading buffer (4 μL), loaded onto 1% agarose gels containing ethidium bromide (0.75 μg mL^−1), and electrophoresed for 30 min at 8-12 V cm^−1 in 1×TAE (40 mM Trisacetate, 1 mM EDTA, pH 8.2). The bands were visualized with UV-transillumination (UVP transilluminator) and quantified using the Gel Doc-It Imaging system (UVP) or GNU Image Manipulation Program (GIMP).

SMILES: [Ru+2].c1ccc(-c2ccccn2)nc1.c1ccc(-c2ccccn2)nc1.c1ccc(-c2ccccn2)nc1 [[Ru(bpy)^3]^2+]
- Form I [1]: 33%
- Form II [1]: 67%
- Form I [2]: 37%
- Form II [2]: 63%
- Form II (Air, dark, 420-nm experiment FIG. 15): 29%
- Form I (Air, dark, 420-nm experiment FIG. 15, 300 μM [Ru(bpy)3]2+, 2 μM 10a, 4 μM 10b, 8 μM 14a): 71%
- Form II (Air, dark, visible experiment FIG. 16): 28%
- Form I (Air, dark, visible experiment FIG. 16, 500 μM [Ru(bpy)3]2+, 2 μM 10a): 72%
- Form I [3]: 71%
- Form II [3]: 29%
- Form I [4]: 57%
- Form II [4]: 43%
